# Legend:
# Type in all cases: biochemical
# [1] = tested on: alkaline pullulanase A from Bacillus sp. KSM-AP 1876 (FERM BP-3049); assay: Effects of chelating agents on pullulanase activity of alkaline pullulanase A; settings: substrate pullulan
# Method: (§1) 0.1 ml of enzyme solution was added to 0.9 ml of a substrate solution consisting of a buffer solution and pullulan (final concentration in the reaction system was 0.25%), and the mixture was reacted at 40° C. for 30 minutes. After the reaction, reducing sugar was quantitatively determined by a method of the 3,5-dinitrosalicylic acid (DNS).
# (§2) Specifically, 1.0 ml of DNS reagent was added to 1.0 ml of reaction mixture, and the mixture was heated at 100° C. for 5 minutes to develop color. After cooling, the mixture was diluted by adding 4.0 ml of deionized water. This solution was subjected to colorimetric quantitative analysis at a wave length of 535 nm. One unit (1U) of enzyme activity was defined as the amount of enzyme which released 1 μmol of reducing sugar (as glucose) per minute.
# [2] = tested on: alkaline pullulanase B (having α-amylase activity) from Bacillus sp. KSM-AP 1378 (FERM BP-3048), pullulanase activity; assay: Effects of chelating agents on pullulanase activity of alkaline pullulanase B; settings: for Effect of chelating agent on pullulanase activity: chelating agent 10 mM; for Residual activity (%), Pullulanase activity: compound 10 mM, no addition = 100
# Method: as §1, §2
# Same procedures were followed as mentioned in the section of alkaline pullulanase A.
# The α-amylase activity which had been adversely affected by chelating agents can be restored by the addition of Ca^2+ ions as shown in Table 3.
# [3] = tested on: alkaline pullulanase B (having α-amylase activity) from Bacillus sp. KSM-AP 1378 (FERM BP-3048), α-amylase activity; assay: Effects of chelating agents on α-amylase activity of alkaline pullulanase B
# Method: as §2, with “0.1 ml of enzyme solution was added to 0.9 ml of a substrate solution consisting of a buffer solution and soluble starch (final concentration in the reaction system was 0.25%), and the mixture was reacted at 50° C. for 15 minutes. After the reaction, reducing sugar was quantitatively determined by means of a DNS method. Specifically,” for “Specifically,”, “at” for “at a”
structure (smiles),measurement,setting,value
O=C(O)CC(O)(CC(=O)O)C(=O)O [citric acid],Effect of chelating agent on pullulanase activity,[1]; chelating agent 0.05% by weight,almost no adverse effects
O=C(O)CN(CCN(CC(=O)O)CC(=O)O)CC(=O)O [EDTA],Effect of chelating agent on pullulanase activity,[1]; chelating agent 10 mM,almost no adverse effects
same,Effect of chelating agent on pullulanase activity,[2],almost no adverse effect
same,"Residual activity (%), Pullulanase activity",[2],77%
O=C(O)CN(CCOCCOCCN(CC(=O)O)CC(=O)O)CC(=O)O [EGTA],Effect of chelating agent on pullulanase activity,[1]; chelating agent 10 mM,almost no adverse effects
same,Effect of chelating agent on pullulanase activity,[2],almost no adverse effect
same,"Residual activity (%), Pullulanase activity",[2],65%
same,Effect of chelating agent on α-amylase activity,"[3]; chelating agent 10 mM, restored by addition of Ca2+ ions",adversely affected significantly
same,"Residual activity (%), α-Amylase activity, when Ca2+ ions were added again","[3]; compound 10 mM, then Ca2+ ions added again (values in parentheses)",91%
same,"Residual activity (%), α-Amylase activity","[3]; compound 10 mM, no addition = 100",18%
